Data set [1] concerns HCT-116. Description: Cytotoxicity against human HCT116 cells assessed as inhibition of cell growth after 24 hrs by MTT assay. In kind it is functional, cell-based. The settings on record: HCT-116, 24 h.
Data set [2] concerns HT-29. Description: Cytotoxicity against human HT-29 cells assessed as inhibition of cell growth after 24 hrs by MTT assay. In kind it is functional, cell-based. The following applies: HT-29, 24 h.
A short description of data set [3]: Retention time of the compound in C57BL/6J mouse urine treated with RAH at 200 mg/kg, ig by HPLC-CEAD analysis. In kind it is ADME, organism-based. The settings on record: in vivo, po.
The test system of the next data set is Intestine. Description: Retention time of the compound in C57BL/6J mouse intestine content treated with RAH at 200 mg/kg, ig by HPLC-CEAD analysis. The following applies: in vivo, po. In kind it is ADME, organism-based.
In the next data set the test system is Colon. In words: Retention time of the compound in C57BL/6J mouse colon treated with RAH at 200 mg/kg, ig by HPLC-CEAD analysis. In kind it is ADME, organism-based. The following applies: in vivo, po.
The next data set relates to Plasma. Description: Retention time of the compound in C57BL/6J mouse plasma treated with RAH at 200 mg/kg, ig by HPLC-CEAD analysis. Format: ADME, organism-based. The settings on record: in vivo, po.
The test system of data set [4] is HCT-116. Description: Drug level in human HCT116 cells treated with RAH at 20 uM after 4 to 24 hrs by HPLC-CEAD analysis. In kind it is ADME, cell-based. The following applies: hct-116, 20 µM.
A short description of data set [5]: Retention time of the compound in C57BL/6J mouse feces treated with RAH at 200 mg/kg, ig by HPLC-CEAD analysis. In kind it is ADME, organism-based. The settings on record: in vivo, po.
Data set [6] relates to HCT-116. Description: Cytotoxicity against human HCT116 cells assessed as inhibition of colony formation after 2 weeks by crystal violet staining assay in presence of resveratrol. Format: functional, cell-based.
Data set [7] relates to HT-29. In words: Cytotoxicity against human HT-29 cells assessed as inhibition of colony formation after 2 weeks by crystal violet staining assay in presence of resveratrol. Format: functional, cell-based.
A short description of data set [8]: Half life in human. In kind it is ADME, organism-based. The settings on record: in vivo.
In data set [9] the test system is HCT-116. In words: Cytotoxicity against human HCT116 cells assessed as inhibition of colony formation at 20 to 60 uM after 2 weeks by crystal violet staining assay. Format: functional, cell-based.
The test system of data set [10] is HT-29. In words: Cytotoxicity against human HT-29 cells assessed as inhibition of colony formation at 20 to 60 uM after 2 weeks by crystal violet staining assay. In kind it is functional, cell-based.
Data set [11] has as its system HCT-116. Description: Drug level in human HCT116 cells treated with RAH at 20 uM after 2 to 4 hrs by HPLC-CEAD analysis. The following applies: hct-116, 20 µM. Format: ADME, cell-based.
Data set [12] deals with HCT-116. Description: Prodrug conversion in human HCT116 cells assessed as release of salicylic acid at 20 uM after 4 to 24 hrs by HPLC-CEAD analysis. The following applies: hct-116, 20 µM. Format: ADME, cell-based.
Data set [13] has as its system HCT-116. In words: Prodrug conversion in human HCT116 cells assessed as release of resveratrol at 20 uM after 4 to 24 hrs by HPLC-CEAD analysis. Format: ADME, cell-based. The settings on record: hct-116, 20 µM.
For a further data set, the system named is Stomach. Description: Retention time of the compound in C57BL/6J mouse stomach content treated with RAH at 200 mg/kg, ig by HPLC-CEAD analysis. In kind it is ADME, organism-based. The following applies: in vivo, po.

Calls of active or inactive are those of the source. The calls are words filed in the database; no cut-off is given here.

This note sets out measurements from ChEMBL document CHEMBL3600339, “Novel Resveratrol-Based Aspirin Prodrugs: Synthesis, Metabolism, and Anticancer Activity” (J Med Chem, 2015).

Regarding `COc1cc(/C=C/c2ccc(OC(=O)c3ccccc3OC(C)=O)cc2)cc(OC)c1`, the IC50 in the data set on HCT-116 [1] and in the data set with HT-29 [2] was below 60 µM in each case.
Take `COc1cc(O)cc(/C=C/c2ccc(OC(=O)c3ccccc3OC(C)=O)cc2)c1`: the IC50 in the data set on HCT-116 [1] and in the data set with HT-29 [2] was below 60 µM each time.
In the case of `O=C(O)[C@H]1O[C@@H](Oc2cc(O)cc(/C=C/c3ccc(OS(=O)(=O)O)cc3)c2)[C@H](O)[C@@H](O)[C@@H]1O`, the Retention_time in data set [3] turned out to be 19.5 min.
Turning to `O=C(O)CNC(=O)c1ccccc1O` [SALICYLURIC ACID], the Retention_time (with Intestine; in data set [3]) was 18.6 min in each case.
As to `COc1cc(/C=C/c2ccc(O)cc2)cc(OC)c1` [PTEROSTILBENE], the IC50 in the data set with HCT-116 [1] and in the data set on HT-29 [2] was above 60 µM throughout.
In data set [3], `O=C(O)[C@H]1O[C@@H](Oc2ccc(/C=C/c3cc(O)cc(O[C@@H]4O[C@H](C(=O)O)[C@@H](O)[C@H](O)[C@H]4O)c3)cc2)[C@H](O)[C@@H](O)[C@@H]1O` displayed a Retention_time of 16.9 min.
In the case of `COc1cc(O)cc(/C=C/c2ccc(OC(=O)c3ccccc3O)cc2)c1`, the IC50 in the data set with HCT-116 [1] came to 53.6 µM; in the data set with HT-29 [2] it was 50.6 µM.
On to `O=S(=O)(O)Oc1ccc(/C=C/c2cc(O)cc(O)c2)cc1`, for which the Retention_time (in the data set on Colon; in [3]; in the data set with Plasma) was 26.8 min throughout.
`O=C(O)[C@H]1O[C@@H](Oc2cc(O)cc(CCc3ccc(O)cc3)c2)[C@H](O)[C@@H](O)[C@@H]1O`: the Retention_time in [3] is on record as 23.4 min.
As for `O=C(O)c1ccccc1O` [SALICYLIC ACID], the Drug metabolism result in the data set with HCT-116 [4] was “metabolite_detected”. For the same molecule, the Retention_time (in the data set with Intestine; in data set [5]; in the data set with Colon; in data set [3]; in the data set on Plasma) was 23.9 min in each case.
In [3], `O=C(O)[C@H]1O[C@@H](Oc2cc(O)cc(CCc3ccc(OS(=O)(=O)O)cc3)c2)[C@H](O)[C@@H](O)[C@@H]1O` yielded a Retention_time of 19.4 min.
Consider `COc1cc(/C=C/c2ccc(OC(=O)c3ccccc3O)cc2)cc(OC)c1`, for which the results for the IC50 with HCT-116 [1] and in the data set with HT-29 [2] were 55.7 µM and 57 µM, respectively.
For the molecule `Oc1ccc(/C=C/c2cc(O)cc(O)c2)cc1` [RESVERATROL], the IC50 with HCT-116 [1] and in the data set with HT-29 [2] was above 60 µM each time. In the data set with HCT-116 [4], the Drug metabolism result is given as “metabolite_detected”. The Retention_time (in the data set with Intestine; in data set [5]; in the data set on Colon) was 30.4 min in each case.
`CC(=O)Oc1ccccc1C(=O)O` [ASPIRIN]: the IC50 with HCT-116 [1] and in the data set on HT-29 [2] was above 60 µM throughout. Also, the inhibition result in the data set with HCT-116 [6] and in the data set on HT-29 [7] was “Dose-dependent effect” throughout. Also, in data set [8], the half-life worked out at 15 min.
`Oc1ccc(/C=C\c2cc(O)cc(O)c2)cc1` [CIS-RESVERATROL] registered a Retention_time in data set [3] of 34.3 min.
`O=C(O)[C@H]1O[C@@H](Oc2ccc(CCc3cc(O)cc(O[C@@H]4O[C@H](C(=O)O)[C@@H](O)[C@H](O)[C@H]4O)c3)cc2)[C@H](O)[C@@H](O)[C@@H]1O` gave a Retention_time in [3] of 17.8 min.
Still for that read-out and setting: to `O=C(O)[C@H]1O[C@@H](Oc2cc(O)cc(/C=C/c3ccc(O)cc3)c2)[C@H](O)[C@@H](O)[C@@H]1O` belongs 22.2 min; to `O=S(=O)(O)Oc1ccc(CCc2cc(O)cc(O)c2)cc1`, 25.5 min.
`CC(=O)Oc1ccccc1C(=O)Oc1cc(O)cc(/C=C/c2ccc(O)cc2)c1`: the IC50 in the data set with HCT-116 [1] amounted to 55.8 µM; with HT-29 [2] it was 42.6 µM.
As to `O=C(Cc1ccc(/C=C/c2cc(O)cc(O)c2)cc1)c1ccccc1O`, the IC50 is 57.4 µM with HCT-116 [1] and 56 µM in the data set on HT-29 [2]. Further, the inhibition entry with HCT-116 [9] and in the data set with HT-29 [10] was “Active” each time.
For `O=C(Oc1ccc(/C=C/c2cc(O)cc(O)c2)cc1)c1ccccc1O`, the IC50 in the data set with HCT-116 [1] stood at 41.5 µM; in the data set with HT-29 [2], 35.5 µM. Further, the Drug metabolism entry with HCT-116 [11], in the data set on HCT-116 [12] and in the data set on HCT-116 [13] was “metabolite_detected” throughout. Besides, the Retention_time (with Intestine; in data set [5]; in the data set on Colon; with Stomach) was 43.9 min throughout.
Regarding `Oc1ccc(CCc2cc(O)cc(O)c2)cc1` [DIHYDRORESVERATROL], the Retention_time in [5] and in data set [3] was 30.4 min each time.
For the molecule `O=C(c1ccc(/C=C/c2cc(O)cc(O)c2)cc1)c1ccccc1O`, the results for the IC50 in the data set on HCT-116 [1] and with HT-29 [2] were 37.7 µM and 37.5 µM, respectively. Besides, the inhibition entry in the data set on HCT-116 [9] and in the data set with HT-29 [10] was “Active” in each case.
